According to PMC9937012 (Journal of Enzyme Inhibition and Medicinal Chemistry, 2023):

Assays:
[1] = target: human AChE (Homo sapiens, UniProt P22303); test: Inhibition of AChE; type: biochemical; settings: for inhibition at 10 µM: read-out: AChE Inhibition at 10 µM [%]
[2] = target: T1, human recombinant MAO-B (Homo sapiens, UniProt P27338); test: Inhibition of monoamine oxidase B; type: biochemical; settings: for inhibition at 10 µM: read-out: MAO-B % Inhibition at 10 µM, 10 µM; for inhibition at 10 µM / MAO-B % Inhibition at 10 µM: mean of three experiments
T1 sequence (P27338 1-520): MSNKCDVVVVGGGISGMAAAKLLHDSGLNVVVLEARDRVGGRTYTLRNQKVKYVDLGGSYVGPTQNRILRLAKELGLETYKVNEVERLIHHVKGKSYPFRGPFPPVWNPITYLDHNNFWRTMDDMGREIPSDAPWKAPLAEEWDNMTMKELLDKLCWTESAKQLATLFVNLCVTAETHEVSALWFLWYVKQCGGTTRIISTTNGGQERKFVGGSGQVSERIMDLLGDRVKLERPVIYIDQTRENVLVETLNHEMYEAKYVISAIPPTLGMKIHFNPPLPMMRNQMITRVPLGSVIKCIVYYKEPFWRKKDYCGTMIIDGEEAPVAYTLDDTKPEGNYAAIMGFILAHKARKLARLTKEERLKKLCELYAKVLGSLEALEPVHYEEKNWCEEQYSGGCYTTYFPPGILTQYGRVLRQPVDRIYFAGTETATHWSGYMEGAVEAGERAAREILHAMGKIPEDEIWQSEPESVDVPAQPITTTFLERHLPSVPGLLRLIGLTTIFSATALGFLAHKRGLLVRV

[3] = target: human H1R (Homo sapiens, UniProt P35367); test: Human H1R radioligand displacement assay; type: binding; settings: for inhibition at 10 µM: read-out: hH1R Inhibition at 10 µM [%] ±SD (n); for inhibition at 1 µM: read-out: hH1R Inhibition at 1 µM [%] (n)
[4] = target: BuChE from human serum (Homo sapiens, UniProt P06276); test: Inhibition of BuChE; type: biochemical; settings: for inhibition at 10 µM: read-out: hBuChE % Inhibition at 10 µM
[5] = target: human H4R (Homo sapiens, UniProt Q9H3N8); test: Human H4R radioligand displacement assay; settings: read-out: hH4R Inhibition at 10 µM [%] (n)
[6] = target: T2, human recombinant MAO-A (Homo sapiens, UniProt P21397); test: Inhibition of monoamine oxidase A; type: biochemical; settings: read-out: MAO-A % Inhibition at 10 µM
T2 sequence (P21397 1-527): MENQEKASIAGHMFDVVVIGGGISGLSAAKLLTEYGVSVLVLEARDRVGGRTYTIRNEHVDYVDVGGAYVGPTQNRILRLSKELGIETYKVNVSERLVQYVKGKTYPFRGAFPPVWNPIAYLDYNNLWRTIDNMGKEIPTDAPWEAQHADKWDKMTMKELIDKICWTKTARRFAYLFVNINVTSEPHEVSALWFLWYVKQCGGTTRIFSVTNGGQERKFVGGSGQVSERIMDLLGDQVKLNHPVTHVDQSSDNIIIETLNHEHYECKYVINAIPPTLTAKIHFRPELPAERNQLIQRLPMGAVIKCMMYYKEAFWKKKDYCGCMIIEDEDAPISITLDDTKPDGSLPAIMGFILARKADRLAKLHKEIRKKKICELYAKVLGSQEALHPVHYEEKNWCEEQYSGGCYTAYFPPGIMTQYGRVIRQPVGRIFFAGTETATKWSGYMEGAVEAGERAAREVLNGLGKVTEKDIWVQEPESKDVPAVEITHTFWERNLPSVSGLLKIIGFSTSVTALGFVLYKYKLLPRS

[7] = target: human H3R (Homo sapiens, UniProt Q9Y5N1); test: Human H3R radioligand displacement assay
human H3R, sequence (Q9Y5N1 whole entry): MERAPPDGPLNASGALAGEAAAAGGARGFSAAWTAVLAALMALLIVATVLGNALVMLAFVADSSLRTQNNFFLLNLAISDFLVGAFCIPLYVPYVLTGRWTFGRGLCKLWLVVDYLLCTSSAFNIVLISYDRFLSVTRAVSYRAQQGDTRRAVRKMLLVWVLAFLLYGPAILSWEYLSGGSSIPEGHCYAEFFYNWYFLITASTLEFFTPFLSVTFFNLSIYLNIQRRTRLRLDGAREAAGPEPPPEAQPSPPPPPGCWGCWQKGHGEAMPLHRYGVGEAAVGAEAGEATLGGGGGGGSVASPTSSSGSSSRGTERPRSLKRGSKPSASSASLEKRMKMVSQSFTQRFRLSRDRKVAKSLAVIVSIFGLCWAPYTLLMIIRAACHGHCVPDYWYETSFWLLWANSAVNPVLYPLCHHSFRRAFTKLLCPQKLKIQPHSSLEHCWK

BuChE from human serum, sequence (P06276 29-602): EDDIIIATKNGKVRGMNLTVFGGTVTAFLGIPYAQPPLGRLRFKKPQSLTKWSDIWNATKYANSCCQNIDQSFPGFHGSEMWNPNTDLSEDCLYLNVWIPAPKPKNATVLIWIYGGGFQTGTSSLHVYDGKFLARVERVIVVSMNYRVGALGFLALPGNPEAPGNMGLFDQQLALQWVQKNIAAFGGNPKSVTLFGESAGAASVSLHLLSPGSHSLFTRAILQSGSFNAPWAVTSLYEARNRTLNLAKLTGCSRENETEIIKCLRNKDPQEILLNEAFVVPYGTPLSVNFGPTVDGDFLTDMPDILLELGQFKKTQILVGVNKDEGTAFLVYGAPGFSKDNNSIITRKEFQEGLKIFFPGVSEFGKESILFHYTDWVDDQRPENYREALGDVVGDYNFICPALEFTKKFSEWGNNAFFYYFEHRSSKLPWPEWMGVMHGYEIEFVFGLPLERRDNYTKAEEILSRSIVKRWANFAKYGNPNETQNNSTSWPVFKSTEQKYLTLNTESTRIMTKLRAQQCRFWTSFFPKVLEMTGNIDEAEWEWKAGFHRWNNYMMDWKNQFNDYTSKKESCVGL
human H1R, sequence (P35367 whole entry): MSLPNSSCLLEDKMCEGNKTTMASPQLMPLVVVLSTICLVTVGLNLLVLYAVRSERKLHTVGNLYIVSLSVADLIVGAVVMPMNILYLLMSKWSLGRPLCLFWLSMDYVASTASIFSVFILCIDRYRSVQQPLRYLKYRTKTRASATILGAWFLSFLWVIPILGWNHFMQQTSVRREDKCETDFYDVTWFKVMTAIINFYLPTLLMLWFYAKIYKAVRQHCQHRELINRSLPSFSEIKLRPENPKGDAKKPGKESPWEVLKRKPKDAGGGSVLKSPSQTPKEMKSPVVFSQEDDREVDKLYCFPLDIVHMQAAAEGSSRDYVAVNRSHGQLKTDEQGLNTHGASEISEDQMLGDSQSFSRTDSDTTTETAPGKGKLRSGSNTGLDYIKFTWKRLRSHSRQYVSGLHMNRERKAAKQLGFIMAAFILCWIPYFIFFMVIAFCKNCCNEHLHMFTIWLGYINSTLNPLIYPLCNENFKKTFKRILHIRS
human AChE, sequence (P22303 32-614): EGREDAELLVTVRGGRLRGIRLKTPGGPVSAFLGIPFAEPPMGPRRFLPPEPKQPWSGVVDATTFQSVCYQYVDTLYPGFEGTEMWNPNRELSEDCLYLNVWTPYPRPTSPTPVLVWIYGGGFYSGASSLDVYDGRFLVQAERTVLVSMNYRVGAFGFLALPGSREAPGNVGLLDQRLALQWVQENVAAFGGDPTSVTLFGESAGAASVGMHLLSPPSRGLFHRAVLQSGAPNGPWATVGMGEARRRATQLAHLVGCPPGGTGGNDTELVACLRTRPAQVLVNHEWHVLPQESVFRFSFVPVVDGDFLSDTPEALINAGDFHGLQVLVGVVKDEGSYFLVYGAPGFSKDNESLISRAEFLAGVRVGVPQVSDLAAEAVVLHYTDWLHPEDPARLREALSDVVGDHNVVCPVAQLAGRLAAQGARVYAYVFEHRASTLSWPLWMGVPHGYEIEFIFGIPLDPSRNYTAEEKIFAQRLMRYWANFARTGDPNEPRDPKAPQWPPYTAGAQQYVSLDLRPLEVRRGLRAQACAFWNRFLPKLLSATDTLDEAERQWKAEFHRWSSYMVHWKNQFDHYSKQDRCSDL
human H4R, sequence (Q9H3N8 whole entry): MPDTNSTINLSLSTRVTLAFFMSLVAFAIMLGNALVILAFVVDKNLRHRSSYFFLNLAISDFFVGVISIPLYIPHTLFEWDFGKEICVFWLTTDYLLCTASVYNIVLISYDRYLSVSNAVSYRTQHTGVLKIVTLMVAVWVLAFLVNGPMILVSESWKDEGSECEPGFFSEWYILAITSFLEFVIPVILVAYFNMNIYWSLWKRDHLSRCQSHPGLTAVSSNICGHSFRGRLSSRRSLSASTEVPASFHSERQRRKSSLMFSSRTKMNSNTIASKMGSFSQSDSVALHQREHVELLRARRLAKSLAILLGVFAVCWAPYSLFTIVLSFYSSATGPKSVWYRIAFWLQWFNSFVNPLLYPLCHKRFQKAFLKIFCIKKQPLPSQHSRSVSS

Compound	IC50 [1] [µM]	inhibition at 10 µM [1] [%]	inhibition at 10 µM [2] [%]	inhibition at 10 µM [3] [%]	IC50 [4] [µM]	inhibition at 10 µM [4] [%]	inhibition at 10 µM [5] [%]	inhibition at 10 µM [6] [%]	Ki [7] [µM]	IC50 [2] [µM]	MAO-B % Inhibition at 10 µM [2] [%]	inhibition at 1 µM [3] [%]
O=C(c1nc2ccc(OCCN3CCCC3)cc2s1)N1CCCC1 [Compound 3b, Pyrrolidin-1-yl-(6-(2-(pyrrolidin-1-yl)ethoxy)benzo[d]thiazol-2-yl)methanone]	0.44 ± 0.1	95.3 ± 0.8	47 ± 3	< 0	5.31 ± 0.01	70 ± 1	44.9 ± 18.1	58 ± 2	0.64	–	–	–
O=C(c1nc2ccc(OCCCN3CCCCC3)cc2s1)N1CCCCC1 [Compound 3d, Piperidin-1-yl-(6-(3-(piperidin-1-yl)propoxy)benzo[d]thiazol-2-yl)methanone]	> 10	33.6 ± 10.8	28 ± 5	65.3 ± 9.2	–	31 ± 1	63.1 ± 11.2	33 ± 3	0.074	–	–	–
O=C(c1nc2ccc(OCCCN3CCCC3)cc2s1)N1CCCC1 [Compound 3h, Pyrrolidin-1-yl-(6-(3-(pyrrolidin-1-yl)propoxy)benzo[d]thiazol-2-yl)methanone]	7.21 ± 2.3	56.8 ± 7.14	24 ± 4	39.1 ± 13	–	13 ± 2	54.3 ± 13	22 ± 4	0.038	–	–	–
O=C(c1nc2ccc(OCCCCN3CCCCC3)cc2s1)N1CCCCC1 [Compound 3j, Piperidin-1-yl-(6-(4-(piperidin-1-yl)butoxy)benzo[d]thiazol-2-yl)methanone]	8.56 ± 2.83	54.8 ± 7.01	48 ± 5	42.8 ± 7.7	3.07 ± 0.24	70 ± 2	53.1 ± 11.7	29 ± 5	0.17	–	–	–
O=C(c1nc2ccc(OCCCCN3CCCC3)cc2s1)N1CCCC1 [Compound 3n, Pyrrolidin-1-yl(6-(4-(pyrrolidin-1-yl)butoxy)benzo[d]thiazol-2-yl)methanone]	1.3 ± 0.1	83 ± 3.27	49 ± 4	37.5 ± 7.5	1.32 ± 0.12	80 ± 1	57.9 ± 13.3	31 ± 4	0.059	–	–	–
O=C(c1nc2ccc(OCCCCCN3CCCCC3)cc2s1)N1CCCCC1 [Compound 3o, Piperidin-1-yl(6-((5-(piperidin-1-yl)pentyl)oxy)benzo[d]thiazol-2-yl)methanone]	> 10	27.8 ± 5.91	> 60	91.2 ± 8.2	2.38 ± 0.32	81 ± 1	38.8 ± 28	37 ± 4	0.068	3.04 ± 0.46	70 ± 4	–
O=C(c1nc2ccc(OCCCCCN3CCCC3)cc2s1)N1CCCC1 [Compound 3s, Pyrrolidin-1-yl-(6-((5-(pyrrolidin-1-yl)pentyl)oxy)benzo[d]thiazol-2-yl)methanone]	–	58.6 ± 3.73	> 60	66.2 ± 7.3	2.35 ± 0.23	69 ± 1	63.7 ± 13	45 ± 3	0.036	1.6 ± 0.16	75 ± 3	–
O=C(NC1CCCC1)c1nc2ccc(OCCCCCNC3CCCC3)cc2s1 [Compound 3t, N-Cyclopentyl-6-((5-(cyclopentylamino)pentyl)oxy)benzo[d]thiazole-2-carboxamide]	3.55 ± 0.54	75.5 ± 4.73	47 ± 5	47.3 ± 8.91	1.75 ± 0.06	84 ± 1	41.8 ± 31.7	39 ± 4	> 1	–	–	–
O=C(NCCN1CCCC1)c1nc2ccc(OCCCNCCN3CCCC3)cc2s1 [Compound 4a, N-(2-(Pyrrolidin-1-yl)ethyl)-6-(3-((2-(pyrrolidin-1-yl)ethyl)amino)propoxy)benzo[d]thiazole-2-carboxamide]	1.24 ± 0.07	86.9 ± 1.51	51 ± 1	–	0.169 ± 0.019	97 ± 1	–	29 ± 4	0.053	–	–	28.1 ± 39.1
O=C(c1nc2ccc(OCCCN3CCCCCC3)cc2s1)N1CCCCCC1 [Compound 4b, Azepan-1-yl-(6-(3-(azepan-1-yl)propoxy)benzo[d]thiazol-2-yl)methanone]	5.91 ± 0.67	62.8 ± 3.35	46 ± 5	–	–	51 ± 2	–	29 ± 2	0.012	–	–	41.9 ± 33.8
CC1CCCN(CCCOc2ccc3nc(C(=O)N4CCCC(C)C4)sc3c2)C1 (centres unmarked) [Compound 4k, (3-Methylpiperidin-1-yl)(6-(3-(3-methylpiperidin-1-yl)propoxy)benzo[d]thiazol-2-yl)methanone]	> 10	34.4 ± 2.15	48 ± 5	–	–	30 ± 5	–	32 ± 2	0.064	–	–	42.9 ± 28.3
